Measured values reported in patent US8207193B2 (priority 2006, dated 2012).
pIC50: −log10 of the molar value.

Molecular target: human muscarinic acetylcholine M3 receptor (M3-ACh) (Homo sapiens, UniProt P20309)
Experiment: biochemical
Assay type: binding
Conditions: M3 binding IC50

Chain of human muscarinic acetylcholine M3 receptor (M3-ACh) (P20309 whole entry): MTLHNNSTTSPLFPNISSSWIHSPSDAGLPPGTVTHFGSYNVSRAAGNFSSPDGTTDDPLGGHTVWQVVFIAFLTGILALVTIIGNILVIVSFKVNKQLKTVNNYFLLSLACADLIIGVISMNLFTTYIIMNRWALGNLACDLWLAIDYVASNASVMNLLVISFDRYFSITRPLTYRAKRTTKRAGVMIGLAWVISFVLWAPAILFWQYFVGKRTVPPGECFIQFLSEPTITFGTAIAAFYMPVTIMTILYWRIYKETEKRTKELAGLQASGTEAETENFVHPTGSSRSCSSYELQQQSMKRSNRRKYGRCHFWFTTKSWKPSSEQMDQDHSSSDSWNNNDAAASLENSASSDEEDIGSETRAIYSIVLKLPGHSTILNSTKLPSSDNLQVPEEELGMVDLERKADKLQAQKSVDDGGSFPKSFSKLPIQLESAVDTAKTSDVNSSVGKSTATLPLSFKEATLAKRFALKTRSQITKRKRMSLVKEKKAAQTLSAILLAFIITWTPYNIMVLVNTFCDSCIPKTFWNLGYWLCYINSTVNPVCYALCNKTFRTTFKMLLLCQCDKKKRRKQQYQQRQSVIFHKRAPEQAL

SMILES	pIC50
O=C(O[C@H]1C[N+]2(CC3(c4ccc(Cl)cc4)CC3)CCC1CC2)C1(c2ccccc2)CCCCCC1 [Example 32, (3R^5)-1-{[1-(4-Chlorophenyl)cyclopropyl]methyl}-3-{[(1-phenylcycloheptyl)carbonyl]oxy}-1-azoniabicyclo[2.2.2]octane Bromide]	8.00 to 8.70
O=C(C[N+]12CCC(CC1)[C@@H](OC(=O)C1(c3ccccc3)CCCCCC1)C2)Nc1cccc(F)c1 [Example 22, (3R)-1-{2-[(3-Fluorophenyl)amino]-2-oxoethyl}-3-{[(1-phenylcycloheptyl)carbonyl]oxy}-1-azoniabicyclo[2.2.2]octane Bromide]	> 8.70
O=C(O[C@H]1C[N+]2(Cc3ccccc3)CCC1CC2)C1(c2ccccc2)CCCCCC1 [Example 6, (3R)-1-Benzyl-3-{[(1-phenylcycloheptyl)carbonyl]oxy}-1-azoniabicyclo[2.2.2]octane Bromide]	< 8.00
O=C(C[N+]12CCC(CC1)[C@@H](OC(=O)C1(c3ccccc3)CCCCCC1)C2)N1CCCC1 [Example 14, (3R)-1-(2-Oxo-2-pyrrolidin-1-ylethyl)-3-{[(1-phenylcycloheptyl)carbonyl]oxy}-1-azoniabicyclo[2.2.2]octane Bromide]	8.00 to 8.70
O=C(C[N+]12CCC(CC1)[C@@H](OC(=O)C1(c3ccccc3)CCCCCC1)C2)Nc1cnccn1.[Br-] [Example 16, (3R)-1-[2-Oxo-2-(pyrazin-2-ylamino)ethyl]-3-{[(1-phenylcycloheptyl)carbonyl]oxy}-1-azoniabicyclo[2.2.2]octane Bromide]	> 8.70
COc1cccc(CC[N+]23CCC(CC2)[C@@H](OC(=O)C2(c4ccccc4)CCCCCC2)C3)c1 [Example 24, (3R)-1-[2-(3-Methoxyphenyl)ethyl]-3-{[(1-phenylcycloheptyl)carbonyl]oxy}-1-azoniabicyclo[2.2.2]octane Bromide]	> 8.70
O=C(C[N+]12CCC(CC1)[C@@H](OC(=O)C1(c3cccs3)CCCCCC1)C2)Nc1ccon1 [Example 13, (3R)-1-[2-(Isoxazol-3-ylamino)-2-oxoethyl]-3-({[1-(2-thienyl)cycloheptyl]carbonyl}oxy)-1-azoniabicyclo[2.2.2]octane Bromide]	> 8.70
O=C(O[C@H]1C[N+]2(CCCOc3ccccc3)CCC1CC2)C1(c2ccccc2)CCCCCC1 [Example 3, (3R)-1-(3-Phenoxypropyl)-3-{[(1-phenylcycloheptyl)carbonyl]oxy}-1-azoniabicyclo[2.2.2]octane Bromide]	> 8.70
O=C(O[C@H]1C[N+]2(CCc3ccccc3)CCC1CC2)C1(c2ccccc2)CCCCCC1 [Example 26, (3R)-3-{[(1-Phenylcycloheptyl)carbonyl]oxy}-1-(2-phenylethyl)-1-azoniabicyclo[2.2.2]octane Bromide]	> 8.70
O=C(C[N+]12CCC(CC1)[C@@H](OC(=O)C1(c3ccccc3)CCCCCC1)C2)Nc1ccc(Cl)nn1 [Example 21, (3R)-1-{2-[(6-Chloropyridazin-3-yl)amino]-2-oxoethyl}-3-{[(1-phenylcycloheptyl)carbonyl]oxy}-1-azoniabicyclo[2.2.2]octane Bromide]	> 8.70
Cc1cnc(NC(=O)C[N+]23CCC(CC2)[C@@H](OC(=O)C2(c4ccccc4)CCCCCC2)C3)cn1 [Example 33, (3R)-1-{2-[(5-Methylpyrazin-2-yl)amino]-2-oxoethyl}-3-{[(1-phenylcycloheptyl)carbonyl]oxy}-1-azoniabicyclo[2.2.2]octane Bromide]	> 8.70

Same assay, conditions: pIC50

SMILES	pIC50
O=C(O[C@H]1C[N+]2(CCCOc3ccccc3)CCC1CC2)C1(c2ccccc2)CCCCCC1 [Example 3, (3R)-1-(3-Phenoxypropyl)-3-{[(1-phenylcycloheptyl)carbonyl]oxy}-1-azoniabicyclo[2.2.2]octane Bromide]	10.30

Same assay, conditions: pIC50 of comparative compounds containing a cyclohexyl (C6) ring in place of cycloheptyl (C7)

SMILES	pIC50
C[N+]12CCC(CC1)[C@@H](OC(=O)C1(c3ccccc3)CCCCC1)C2 [compound 5, (3R)-1-Methyl-3-{[(1-phenylcyclohexyl)carbonyl]oxy}-1-azoniabicyclo[2.2.2]octane Iodide, reference compound]	7.30

Same assay, conditions: pIC50 of comparative compounds containing a cyclopentyl (C5) ring in place of cycloheptyl (C7)

SMILES	pIC50
O=C(C[N+]12CCC(CC1)[C@@H](OC(=O)C1(c3ccccc3)CCCC1)C2)Nc1cnccn1 [compound 3, (3R)-1-[2-Oxo-2-(pyrazin-2-ylamino)ethyl]-3-{[(1-phenylcyclopentyl)carbonyl]oxy}-1-azoniabicyclo[2.2.2]octane Bromide, reference compound]	9.50

System: not listed separately
Experiment: Measurement of plasma protein binding by equilibrium dialysis
Conditions: 37° C., 5 μM compound

SMILES	human plasma protein binding [% bound]
O=C(C[N+]12CCC(CC1)[C@@H](OC(=O)C1(c3ccccc3)CCCCCC1)C2)Nc1cnccn1.[Br-] [Example 16, (3R)-1-[2-Oxo-2-(pyrazin-2-ylamino)ethyl]-3-{[(1-phenylcycloheptyl)carbonyl]oxy}-1-azoniabicyclo[2.2.2]octane Bromide]	94
